From ChEMBL document CHEMBL4715854, “Discovery of Roblitinib (FGF401) as a Reversible-Covalent Inhibitor of the Kinase Activity of Fibroblast Growth Factor Receptor 4” (J Med Chem, 2020)
Converted amounts (≈) assume the structure as drawn.

Tests used:
[1] = Permeability of the compound in human Caco-2 cells assessed as compound recovery at 10 uM measured after 2 hrs by LC/MS/MS analysis; format: ADME, cell-based; conditions: read-out: Drug recovery
[2] = Drug metabolism in rat liver microsome assessed as reduction of aldehyde group at 10 mM measured after 15 mins in presence of NADPH by LC-MS analysis; format: ADME; conditions: microsomes, 10000 µM
[3] = Drug metabolism in human liver microsome assessed as reduction of aldehyde group at 10 mM measured after 15 mins in presence of NADPH by LC-MS analysis; format: ADME; conditions: microsomes, 10000 µM
[4] = Half-life in Crl:CD (SD) rat at 1 mg/kg, iv or 3 mg/kg, po measured upto 24 hrs by LC-MS/MS analysis; format: ADME, organism-based; conditions: in vivo
[5] = Volume of distribution at steady state in Crl:CD (SD) rat at 1 mg/kg, iv or 3 mg/kg, po measured upto 24 hrs by LC-MS/MS analysis; format: ADME, organism-based; conditions: in vivo, read-out: Vdss
[6] = Clearance in Crl:CD (SD) rat at 1 mg/kg, iv or 3 mg/kg, po measured up to 24 hrs by LC-MS/MS analysis; format: ADME, organism-based; conditions: in vivo
[7] = Oral bioavailability in Crl:CD (SD) rat at 3 mg/kg measured upto 24 hrs by LC-MS/MS analysis; format: ADME, organism-based; conditions: Crl:CD (SD), in vivo
[8] = Thermodynamic solubility of compound in phosphate buffer at pH 6.8 measured after 15 mins by shake-flask method based LC-HRMS analysis; format: physicochemical; conditions: read-out: Therm_solubility
[9] = Aqueous solubility of compound at pH 6.8; format: physicochemical; conditions: buffer, time 15 min
[10] = Dose normalized AUC in Crl:CD (SD) rat at 3 mg/kg, po measured up to 24 hrs by LC-MS/MS analysis; format: ADME, organism-based; conditions: in vivo
[11] = Dose normalized AUC in Crl:CD (SD) rat at 1 mg/kg, iv measured up to 24 hrs by LC-MS/MS analysis; format: ADME, organism-based; conditions: in vivo
[12] = Lipophilicity, log D of the compound in 1-octanol at pH 7.4 by potentiometric titration method; format: physicochemical
[13] = Oral bioavailability in Crl:CD (SD) rat at 3 mg/kg administered as nanosuspension formulated in CMC-5/Tween 80 measured up to 24 hrs by LC-MS/MS analysis; format: ADME, organism-based; conditions: in vivo

Compound | recovery at 2 h, 10 µM [1] | Drug metabolism [2] | Drug metabolism [3] | also measured
COCCNc1cc(NC(=O)N(C)c2cccc(C=O)n2)ncc1C#N | < 10% | Metabolite_Detected | Metabolite_Detected | 
CN(C)Cc1cc2c(nc1C=O)N(C(=O)Nc1ccc(C#N)cn1)CCC2 | < 10% | Metabolite_Detected | Metabolite_Detected | 
CC(C)Oc1cc(NC(=O)N2CCc3ccc(C=O)nc32)ncc1C#N | < 10% | Metabolite_Detected | Metabolite_Detected | 
N#Cc1ccc(NC(=O)N2CCCCc3ccc(C=O)nc32)nc1 | < 10% | Metabolite_Detected | Metabolite_Detected | 
CCN1CCN(c2ccc(Nc3cc(N(C)C(=O)Nc4c(Cl)c(OC)cc(OC)c4Cl)ncn3)cc2)CC1 [INFIGRATINIB] | < 10% | Metabolite_Detected | Metabolite_Detected | 
COCCNc1cc(NC(=O)N(CCOC)c2cccc(C=O)n2)ncc1C#N | < 10% | Metabolite_Detected | Metabolite_Detected | 
O=Cc1ccc2c(n1)N(C(=O)Nc1ccc(C(F)(F)F)cn1)CCC2 | < 10% | Metabolite_Detected | Metabolite_Detected | logD [12]: 4.2; solubility thermodynamic at […] [8]: 4.9 µM (≈ 1.72 µg/mL)
N#Cc1cnc(NC(=O)N2CCCc3ccc(C=O)nc32)cn1 | < 10% | Metabolite_Detected | Metabolite_Detected | 
O=Cc1ccc2c(n1)N(C(=O)Nc1ccc(C(F)(F)F)cn1)CCO2 | < 10% | Metabolite_Detected | Metabolite_Detected | 
CC(C)COc1cc(N2CCC(N(C)C)CC2)ccc1Nc1ncc(C#N)c(N[C@H]2[C@@H](C(N)=O)[C@@H]3C=C[C@H]2C3)n1 | < 10% | Metabolite_Detected | Metabolite_Detected | 
O=Cc1nc2c(C(=O)Nc3ccc(C(F)(F)F)cn3)cccc2cc1O | < 10% | Metabolite_Detected | Metabolite_Detected | 
N#Cc1ccc(NC(=O)N2CCCc3cc(CC(=O)O)c(C=O)nc32)nc1 | < 10% | Metabolite_Detected | Metabolite_Detected | 
COC[C@H](C)Nc1cc(NC(=O)N2CCCc3cc(CN4CCN(C)CC4=O)c(C=O)nc32)ncc1C#N |  |  |  | clearance [6]: 19 mL/min/kg
N#Cc1ccc(NC(=O)N2CCCc3cc(C4CC4)c(C=O)nc32)nc1 | < 10% | Metabolite_Detected | Metabolite_Detected | 
COC[C@@H](C)Nc1cc(NC(=O)N2CCCc3cc(CN4CCN(C)CC4=O)c(C=O)nc32)ncc1C#N |  |  |  | clearance [6]: 35 mL/min/kg
CC1(O)CCN(c2cc(NC(=O)N3CCCc4ccc(C=O)nc43)ncc2C#N)CC1 | < 10% | Metabolite_Detected | Metabolite_Detected | 
COCCNc1cc(NC(=O)N(C)c2ccc(CN3CCN(C)CC3=O)c(C=O)n2)ncc1C#N |  |  |  | clearance [6]: 88 mL/min/kg
COCCNc1cc(NC(=O)N2CCCc3cc(CN(C)C(C)=O)c(C=O)nc32)ncc1C#N |  |  |  | half-life [4]: 27.7 h; Vd [5]: 8.6 L/kg; clearance [6]: 16 mL/min/kg; bioavailability [7]: 26%; solubility thermodynamic at […] [8]: 8 µM (≈ 3.72 µg/mL); AUC/dose [10]: 599 nM·h; AUC/dose [11]: 2307 nM·h
C=CC(=O)Nc1ccccc1C(=O)Nc1cc(CCc2cc(OC)cc(OC)c2)[nH]n1 | < 10% | Metabolite_Detected | Metabolite_Detected | 
CC(=O)N(C)Cc1cc2c(nc1C=O)N(C(=O)Nc1ccc(C#N)cn1)CCC2 |  |  |  | solubility at […] [9]: 18 µM (≈ 7.06 µg/mL)
O=Cc1ccc2cccc(C(=O)Nc3ccc(C(F)(F)F)cn3)c2n1 |  |  |  | solubility thermodynamic at […] [8]: < 2.9 µM

The next lines start with results.

recovery at 2 h, 10 µM [1] | Drug metabolism [2] | Drug metabolism [3] | Compound | also measured
< 10% | Metabolite_Detected | Metabolite_Detected | COCCNc1cc(NC(=O)N2CCCc3cc(-c4cccnc4)c(C=O)nc32)ncc1C#N | 
< 10% | Metabolite_Detected | Metabolite_Detected | COCCNc1cc(NC(=O)N2CCCc3cc(-c4cnc(C)s4)c(C=O)nc32)ncc1C#N | half-life [4]: 3.5 h; Vd [5]: 1.5 L/kg; clearance [6]: 8 mL/min/kg; bioavailability [7]: 46%; solubility thermodynamic at […] [8]: < 6 µM; solubility at […] [9]: < 4 µM; AUC/dose [10]: 2174 nM·h; AUC/dose [11]: 4703 nM·h
< 10% | Metabolite_Detected | Metabolite_Detected | COCCOc1cc(NC(=O)N2CCCc3cc(C(F)(F)F)c(C=O)nc32)ncc1C#N | 
< 10% | Metabolite_Detected | Metabolite_Detected | Cc1cc2c(nc1C=O)N(C(=O)Nc1ccc(C#N)cn1)CCC2 | 
< 10% | Metabolite_Detected | Metabolite_Detected | COCCOc1cc(NC(=O)N2CCCc3cc(COC)c(C=O)nc32)ncc1C#N | 
< 10% | Metabolite_Detected | Metabolite_Detected | COCCOc1cc(NC(=O)N2CCCc3cc(C(F)F)c(C=O)nc32)ncc1C#N | 
< 10% | Metabolite_Detected | Metabolite_Detected | COCCOc1cc(NC(=O)N2CCCc3cc(Br)c(C=O)nc32)ncc1C#N | 
< 10% | Metabolite_Detected | Metabolite_Detected | COCCNc1cc(NC(=O)N2CCCc3cc(C4CCN(C5COC5)CC4)c(C=O)nc32)ncc1C#N | 
< 10% | Metabolite_Detected | Metabolite_Detected | N#Cc1cnc(NC(=O)N2CCCc3cc(CO)c(C=O)nc32)cc1O[C@@H]1CCOC1 | 
< 10% | Metabolite_Detected | Metabolite_Detected | COCCNc1cc(NC(=O)N2CCCc3cc(C(F)F)c(C=O)nc32)ncc1C#N | bioavailability [13]: 80%; half-life [4]: 2.3 h; Vd [5]: 4.7 L/kg; clearance [6]: 40 mL/min/kg; bioavailability [7]: 7%; solubility thermodynamic at […] [8]: < 6 µM; AUC/dose [10]: 774 nM·h; AUC/dose [11]: 964 nM·h
< 10% | Metabolite_Detected | Metabolite_Detected | COCCOc1cc(NC(=O)N2CCCc3ccc(C=O)nc32)ncc1C#N | 
< 10% | Metabolite_Detected | Metabolite_Detected | COCCNc1cc(NC(=O)N2CCCc3cc(N4CCOCC4=O)c(C=O)nc32)ncc1C#N | 
< 10% | Metabolite_Detected | Metabolite_Detected | COCCNc1cc(NC(=O)N2CCCc3cc(-c4ccnn4C)c(C=O)nc32)ncc1C#N | 
< 10% | Metabolite_Detected | Metabolite_Detected | COc1cc2c(nc1C=O)N(C(=O)Nc1ccc(C#N)cn1)CCC2 | 
< 10% | Metabolite_Detected | Metabolite_Detected | COCCOc1cc(NC(=O)N2CCCc3cc(CO)c(C=O)nc32)ncc1C#N | half-life [4]: 2 h; Vd [5]: 2.5 L/kg; clearance [6]: 52 mL/min/kg; bioavailability [7]: 24%; solubility thermodynamic at […] [8]: 11 µM (≈ 4.53 µg/mL); AUC/dose [10]: 194 nM·h
< 10% | Metabolite_Detected | Metabolite_Detected | N#Cc1cnc(NC(=O)N2CCCc3cc(CO)c(C=O)nc32)cc1O[C@H]1CCOC1 | 
< 10% | Metabolite_Detected | Metabolite_Detected | COCCNc1cc(NC(=O)N2CCCc3cc(C4CCOCC4)c(C=O)nc32)ncc1C#N | 
< 10% | Metabolite_Detected | Metabolite_Detected | CC(C)Oc1cc(NC(=O)N2CCCc3ccc(C=O)nc32)ncc1C#N | 
< 10% | Metabolite_Detected | Metabolite_Detected | N#Cc1ccc(NC(=O)N2CCCc3cc(Cl)c(C=O)nc32)nc1 | 
< 10% | Metabolite_Detected | Metabolite_Detected | N#Cc1ccc(NC(=O)N2CCCc3cc(CO)c(C=O)nc32)nc1 | 
< 10% | Metabolite_Detected | Metabolite_Detected | COCCNc1cc(NC(=O)N2CCCc3cc(-n4cnc(C)c4)c(C=O)nc32)ncc1C#N | solubility at […] [9]: < 4 µM
< 10% | Metabolite_Detected | Metabolite_Detected | N#Cc1ccc(NC(=O)N2CCCc3cc(N)c(C=O)nc32)nc1 | 
